The target of the assay is T1, Orexin receptor type 2 (Homo sapiens, UniProt O43614).
T1 sequence (O43614 whole entry): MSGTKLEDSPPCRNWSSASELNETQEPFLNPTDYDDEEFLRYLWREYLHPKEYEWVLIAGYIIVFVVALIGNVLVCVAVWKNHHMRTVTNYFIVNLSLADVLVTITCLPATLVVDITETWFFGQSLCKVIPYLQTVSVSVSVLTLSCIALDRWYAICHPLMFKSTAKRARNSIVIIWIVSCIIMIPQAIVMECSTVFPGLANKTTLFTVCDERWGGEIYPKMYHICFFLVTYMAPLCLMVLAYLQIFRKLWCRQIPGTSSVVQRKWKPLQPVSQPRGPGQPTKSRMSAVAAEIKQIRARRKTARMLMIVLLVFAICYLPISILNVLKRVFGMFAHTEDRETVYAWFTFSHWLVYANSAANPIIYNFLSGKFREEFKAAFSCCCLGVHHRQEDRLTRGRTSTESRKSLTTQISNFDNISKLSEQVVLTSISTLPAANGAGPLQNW
The experiment in a line: FLIPR Ca2+ Flux Assay: FLIPR Ca2+ Flux Assay- (Okumura et al., Biochem. Biophys. Res. Comm. 280:976-981, 2001). In a typical experiment the OX1 and OX2 receptor antagonistic activity of the compounds of the present invention was determined in accordance with the following experimental method. For intracellular calcium measurements, Chinese hamster ovary (CHO) cells expressing the rat orexin-1 receptor or the human orexin-2 receptor, are grown in Iscove's modified DMEM containing 2 mM L-glutamine, […], 1% hypoxanthine-thymidine supplement, 100 U/ml penicillin, 100 μg/ml streptomycin and 10% heat-inactivated fetal calf serum (FCS). The cells are seeded at 20,000 cells/well into Becton-Dickinson black 384-well clear bottom sterile plates coated with poly-D-lysine. All reagents were from GIBCO-Invitrogen Corp. The seeded plates are incubated overnight at […]. and 5% CO2. Ala-6,12 human orexin-A as the agonist is prepared as a 1 mM stock solution in 1% bovine serum albumin (BSA) and diluted in assay buffer (HBSS containing 20 mM HEPES, 0.1% BSA and 2.5 mM probenecid, pH7.4) for use in the assay at a final concentration of 70 pM. Test compounds are prepared as 10 mM stock solution in DMSO, then diluted in 384-well plates, first in DMSO, then assay buffer. […]. It is filed as cell-based. In general terms: Calcium assays in cells follow changes in intracellular calcium, usually with a dye or a luminescent sensor.

The structures appear in SMILES notation. pIC50: −log10 of the molar value.

For `CC(=O)N(c1cc(C#N)ccn1)[C@@H]1CC[C@@H](C)N(C(=O)c2ccccc2-n2nccn2)C1`, the pIC50 (commonly −log10 of the IC50, conventionally taken in molar units) was 5.75.
